From ChEMBL document CHEMBL4665770, “Design and Discovery of Natural Cyclopeptide Skeleton Based Programmed Death Ligand 1 Inhibitor as Immune Modulator for Cancer Therapy” (J Med Chem, 2020) come the findings set out here.

The subject of data set [1] is MC-38. Kind of data set: Induction of immune response mediated antitumor activity in mouse MC38 cells xenografted in C57/BL mouse assessed as tumor growth inhibition at 40 mg/kg, ip administered every other day from day 6 post implantation measured every 2 days. In kind it is functional, organism-based.
Data set [2] is described as follows: Toxicity in mouse MC38 cells xenografted C57/BL mouse assessed as change in body weight at 40 mg/kg, ip administered every other day from day 6 post implantation measured every 2 days. Conditions: in vivo, 48 h. The data set is classed as organism-based.
Data set [3] has as its system MC-38. Kind of data set: Immunomodulatory activity in mouse MC38 cells xenografted in C57/BL mouse assessed as increase in infiltration of CD3-positive T cells at 40 mg/kg, ip administered every other day from day 6 post implantation by DAPI staining based immunofluorescence microscopy. In kind it is functional, organism-based.
The test system of data set [4] is MC-38. Kind of data set: Immunomodulatory activity in mouse MC38 cells xenografted in C57/BL mouse assessed as increase in perforin at 40 mg/kg, ip administered every other day from day 6 post implantation by hematoxylin staining based immunohistochemical analysis. In kind it is functional, organism-based.
Data set [5] relates to MC-38. Kind of data set: Immunomodulatory activity in mouse MC38 cells xenografted in C57/BL mouse assessed as increase in granzyme B at 40 mg/kg, ip administered every other day from day 6 post implantation by hematoxylin staining based immunohistochemical analysis. The data set is classed as functional, organism-based.
Data set [6] deals with MC-38. Kind of data set: Immunomodulatory activity in mouse MC38 cells xenografted in C57/BL mouse assessed as increase in infiltration of CD8-positive T cells at 40 mg/kg, ip administered every other day from day 6 post implantation by DAPI staining based immunofluorescence microscopy. The data set is classed as functional, organism-based.
The subject of data set [7] is MDA-MB-231. Kind of data set: Immunomodulatory activity in human MDA-MB-231 cells cocultured with human PBMC assessed as induction of PBMC recruitment to MDA-MB-231 cells by measuring increase in activated caspase-3 at 20 uM incubated for 24 hrs by GrennNuc caspase-3 substrate based assay. In kind it is functional, cell-based.
The subject of data set [8] is MDA-MB-231. Kind of data set: Immunomodulatory activity in human CFDA SE-labelled MDA-MB-231 cells cocultured with PMBC assessed as induction of PBMC recruitment to MDA-MB-231 cells by measuring early apoptotic cells at 20 uM incubated for 48 hrs by propidium iodide staining based flow cytometry analysis (reference value: 0 %). The data set is classed as functional. Background: A flow cytometer gives signals particle by particle.

Data set [9] relates to MDA-MB-231. Kind of data set: Immunomodulatory activity in human CFDA SE-labelled MDA-MB-231 cells cocultured with PMBC assessed as induction of PBMC recruitment to MDA-MB-231 cells by measuring viable cells at 20 uM incubated for 48 hrs by propidium iodide staining based flow cytometry analysis (reference value: 99.87 %). In kind it is functional.
For data set [10], the system named is MDA-MB-231. Kind of data set: Immunomodulatory activity in human CFDA SE-labelled MDA-MB-231 cells cocultured with PMBC assessed as induction of PBMC recruitment to MDA-MB-231 cells by measuring late apoptotic cells at 20 uM incubated for 48 hrs by propidium iodide staining based flow cytometry analysis (reference value: 0 %). In kind it is functional.
Data set [11] deals with MDA-MB-231. Kind of data set: Immunomodulatory activity in human CFDA SE-labelled MDA-MB-231 cells cocultured with PMBC assessed as induction of PBMC recruitment to MDA-MB-231 cells by measuring necrotic cell at 20 uM incubated for 48 hrs by propidium iodide staining based flow cytometry analysis (reference value: 0.13 %). The data set is classed as functional.
Data set [12] can be described thus: Toxicity in mouse MC38 cells xenografted C57/BL mouse assessed as death at 40 mg/kg, ip administered every other day from day 6 post implantation measured on day 14. The data set is classed as organism-based. Conditions: in vivo, time 14 day, read-out: Activity.
Data set [13] in a line: Induction of immune response mediated antitumor activity in mouse B16F10 cells xenografted in C57/BL mouse assessed as reduction in tumor weight at 40 mg/kg, ip administered every other day from day 6 post implantation measured every 2 days relative to control. The data set is classed as functional, B16-F10. More on the design: scale not given: the % may be the effect or the level left.

Data set [14] can be described thus: Induction of apoptosis in human PBMC cells assessed as activated caspase-3 at 20 uM incubated for 24 hrs by GrennNuc caspase-3 substrate based assay. In kind it is cell-based.
The test system of data set [15] is B16-F10. Kind of data set: Induction of immune response mediated antitumor activity in mouse B16F10 cells xenografted in C57/BL mouse assessed as change in ratio of CD8+/CD3+ cells at 40 mg/kg, ip administered every other day from day 6 post implantation by flow cytometry. The data set is classed as functional, organism-based.
In data set [16] the test system is B16-F10. Kind of data set: Induction of immune response mediated antitumor activity in mouse B16F10 cells xenografted in C57/BL mouse assessed as change in ratio of CD3+/CD45+ cells at 40 mg/kg, ip administered every other day from day 6 post implantation by flow cytometry. The data set is classed as functional, organism-based.
Data set [17] in a line: Induction of immune response mediated antitumor activity in mouse B16F10 cells xenografted in C57/BL mouse assessed as infiltration of CD8 cells at 40 mg/kg, ip administered every other day from day 6 post implantation by flow cytometry (reference value: 26.9 %). In kind it is functional, B16-F10.
Data set [18] can be described thus: Induction of immune response mediated antitumor activity in mouse B16F10 cells xenografted in C57/BL mouse assessed as infiltration of CD3 cells at 40 mg/kg, ip administered every other day from day 6 post implantation by flow cytometry (reference value: 1.45 %). In kind it is functional, B16-F10.
Data set [19] in a line: Induction of immune response mediated antitumor activity in mouse B16F10 cells xenografted in C57/BL mouse assessed as infiltration of CD45 cells at 40 mg/kg, ip administered every other day from day 6 post implantation by flow cytometry (reference value: 1.81 %). In kind it is functional, B16-F10.
For data set [20], the system named is B16-F10. Kind of data set: Induction of immune response mediated antitumor activity in mouse B16F10 cells xenografted in C57/BL mouse coadministered with anti-CD8 antibody assessed as suppression of tumor growth at 40 mg/kg, ip administered every other day from day 6 post implantation measured every 2 days. The data set is classed as functional, organism-based.

Data set [21] can be described thus: Induction of immune response mediated antitumor activity in mouse B16F10 cells xenografted in C57/BL mouse assessed as reduction in tumor volume at 40 mg/kg, ip administered every other day from day 6 post implantation measured every 2 days relative to control. The data set is classed as functional, B16-F10. Details: scale not given: the % may be the effect or the level left.

Data set [22] relates to B16-F10. Kind of data set: Toxicity in mouse B16F10 cells xenografted C57/BL mouse assessed as change in body weight at 40 mg/kg, ip administered every other day from day 6 post implantation measured every 2 days. In kind it is organism-based. Conditions: in vivo, 48 h.
Data set [23] relates to MDA-MB-231. Kind of data set: Induction of apoptosis in human MDA-MB-231 cells assessed as activated caspase-3 at 20 uM incubated for 24 hrs by GrennNuc caspase-3 substrate based assay. In kind it is cell-based. To be noted: mda-mb-231, 24 h.
Data set [24] has as its system MDA-MB-231. Kind of data set: Immunomodulatory activity in human MDA-MB-231 cocultured with PMBC assessed as induction of PBMC recruitment to MDA-MB-231 cells by measuring increase in cell cluster at 20 uM incubated for 12 to 48 hrs by EVOS FL digital microscopic analysis. In kind it is functional, cell-based. Conditions: time hrs 12-48.
Data set [25] has as its system MDA-MB-231. Kind of data set: Immunomodulatory activity in human MDA-MB-231 cells expressing luciferase assessed as induction of PBMC-induced cell death incubated for 72 hrs by LDH assay. The data set is classed as functional, cell-based. To be noted: dose microM 0.313-80, time 72.0 hrs.
Data set [26] has as its system MDA-MB-231. Kind of data set: Cytotoxicity against human MDA-MB-231 cells expressing luciferase assessed as reduction in cell viability at 0.312 to 80 uM incubated for 72 hrs by tecan-plate reader based luciferase assay. To be noted: mda-mb-231, 72 h, dose 0.312-80 µM.
Data set [27] relates to MDA-MB-231. Kind of data set: Cytotoxicity against human MDA-MB-231 cells assessed as reduction in cell viability at 0.312 to 80 uM incubated for 72 hrs by MTT assay. The data set is classed as cell-based. To be noted: mda-mb-231, 72 h, dose 0.312-80 µM. For orientation: Tetrazolium assays rely on reduction of a dye to a coloured formazan, in cell work by metabolically active cells.

The target of data set [28] is T1, Programmed cell death protein 1/Programmed cell death 1 ligand 1 (Homo sapiens, UniProt Q9NZQ7). Kind of data set: Inhibition of FC-tagged PD1/His-tagged PD-L1 (unknown origin) protein-proteiinteraction incubated for 3 hrs by coimmunoprecipitation-based Western blot assay. The data set is classed as protein-complex assay. A general note: A western blot detects proteins with antibodies after separation by electrophoresis.

Data set [29] concerns the target Programmed cell death protein 1 (Homo sapiens, UniProt Q15116). Kind of data set: Binding affinity to PD1 (unknown origin) by SPR analysis.
The target of data set [30] is Programmed cell death 1 ligand 1 (Homo sapiens, UniProt Q9NZQ7). Kind of data set: Binding affinity to PDL1 (unknown origin) by SPR analysis.
The target in data set [31] is T1, Programmed cell death protein 1/Programmed cell death 1 ligand 1. Kind of data set: Inhibition of PD1-Tag2/PD-L1-Tag1 (unknown origin) protein-protein interaction preincubated for 15 mins followed by addition of anti-Tag1-Eu3+ and anti-Tag2-XL665 measured after 3 hrs by HTRF assay. The data set is classed as protein-complex assay.
In data set [32] the test system is MDA-MB-231. Kind of data set: Immunomodulatory activity in human MDA-MB-231 cells expressing luciferase assessed as induction of PBMC-induced cell death incubated for 72 hrs by tecan-plate reader based luciferase assay. The data set is classed as functional. To be noted: dose microM 0.313-80, time 72.0 hrs.
Data set [33] has as its target Programmed cell death protein 1/Programmed cell death 1 ligand 1 (Homo sapiens) (UniProt Q15116+Q9NZQ7). Kind of data set: Inhibition of PD1-Tag2/PD-L1-Tag1 (unknown origin) protein-protein interaction at 20 uM preincubated for 15 mins followed by addition of anti-Tag1-Eu3+ and anti-Tag2-XL665 measured after 3 hrs by HTRF assay relative to control. The data set is classed as protein-complex assay. Conditions: time 195.0 min.

Activity calls are given as the source filed them. The calls are words filed in the database; no cut-off is given here.

T1 sequence (Q15116 whole entry): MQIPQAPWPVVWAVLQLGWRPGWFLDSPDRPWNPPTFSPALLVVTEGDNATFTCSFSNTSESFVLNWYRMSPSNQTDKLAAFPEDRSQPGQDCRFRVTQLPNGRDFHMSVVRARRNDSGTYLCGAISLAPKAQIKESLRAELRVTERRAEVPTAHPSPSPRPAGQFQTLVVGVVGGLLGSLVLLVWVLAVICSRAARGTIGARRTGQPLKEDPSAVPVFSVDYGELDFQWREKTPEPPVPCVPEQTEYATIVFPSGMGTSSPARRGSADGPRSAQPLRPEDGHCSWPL
T1 sequence (Q9NZQ7 whole entry): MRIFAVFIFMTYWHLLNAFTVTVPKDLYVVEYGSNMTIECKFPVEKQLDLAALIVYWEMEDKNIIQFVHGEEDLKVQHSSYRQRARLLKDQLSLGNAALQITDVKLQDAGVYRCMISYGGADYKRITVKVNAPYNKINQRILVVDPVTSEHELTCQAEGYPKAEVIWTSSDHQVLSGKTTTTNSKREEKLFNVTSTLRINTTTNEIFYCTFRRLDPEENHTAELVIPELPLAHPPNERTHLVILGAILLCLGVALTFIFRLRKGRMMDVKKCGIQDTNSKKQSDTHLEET
Programmed cell death 1 ligand 1, sequence (Q9NZQ7 whole entry): as above
Programmed cell death protein 1, sequence (Q15116 whole entry): as the sequence (Q15116 whole entry) above

As to `Cc1c(COc2ccc(CN3CCCCC3C(=O)O)cc2Br)cccc1-c1ccccc1` (centres undefined), in the data set on MC-38 [1], the TGI entry was “Active”. The Activity entry was “Toxic” in data set [2]; 55% in the data set on MDA-MB-231 [8]; 0.31% with MDA-MB-231 [9]; 44.69% in the data set with MDA-MB-231 [10]; 0% in the data set on MDA-MB-231 [11]. Moreover, the outcome in the data set with MC-38 [3], with MC-38 [4], with MC-38 [5], in the data set with MC-38 [6] and in the data set with MDA-MB-231 [7] was Active. Besides, in data set [12], the mortality at 336 h was 75%.

By IC50 is commonly meant the concentration at which inhibition is half-maximal. One may read the Kd as a measure of binding affinity in units of concentration. The term inhibition denotes the drop in the measured response relative to a control, in per cent. As to `CC(NCCCC[C@@H]1NC(=O)[C@@H](Cc2ccccc2)NC(=O)[C@H](CC(C)C)NC(=O)[C@H](CC(=O)O)NC(=O)[C@H]([C@@H](C)O)NC(=O)[C@@H]2CCCN2C(=O)[C@@H](Cc2c[nH]c3ccccc23)NC(=O)[C@H](CC(C)C)NC(=O)[C@H](CCCNC(=N)N)NC(=O)[C@H](C(C)C)NC1=O)=C1C(=O)CC(C)(C)CC1=O`, the Activity in data set [13] is on record as 64.9%; in [14], “Non-Toxic”; in data set [17], 36.5%; in data set [18], 5.21%; in data set [19], 13.3%; in data set [21] it was 54.8%. Moreover, the Activity entry in the data set on B16-F10 [22] was “Non-Toxic”; in data set [2], “Non-Toxic”; in the data set with MDA-MB-231 [23], “Non-Toxic”; in the data set on MDA-MB-231 [8], 42.33%; with MDA-MB-231 [9], 0.46%; in the data set with MDA-MB-231 [10], 57.03%. Moreover, the Activity with MDA-MB-231 [11] is 0%; in the data set with MDA-MB-231 [25] it was “Dose-dependent effect”; in the data set with MDA-MB-231 [26], “Non-Toxic”; in the data set on MDA-MB-231 [27], “Non-Toxic”; with MDA-MB-231 [32] it was “Dose-dependent effect”. Also, the result with B16-F10 [15], in the data set on B16-F10 [16] and in the data set with B16-F10 [20] was inactive. Also, in the data set with MC-38 [1], the TGI entry was “Active”. For the same molecule, the result in the data set on MC-38 [3], with MC-38 [4], with MC-38 [5], in the data set on MC-38 [6], in the data set with MDA-MB-231 [7] and with MDA-MB-231 [24] was Active. For the same molecule, the IC50 turned out to be 0.45 µM in data set [28] and 1.42 µM in [31]. Also, the Kd in [29] was 1660 µM; in data set [30] it was 5.67 µM. For the same molecule, in data set [33], the inhibition amounted to 95.8%.
